Reference: US9408871B2, “Methods for inhibiting complement activation and uses thereof” (THE UNIVERSITY OF BRITISH COLUMBIA, priority 2013, dated 2016)

Key:
[1] = system: TP complement components (C5b,6, C7, C8, C9); assay: terminal pathway hemolytic assay using purified complement components; assay type: cell-based, human; details: cRBC, purified C5b,6, C7, C8, C9
Experimental: For serum-based terminal pathway (TP) hemolytic assays, components were diluted in GVB containing 10 mM EDTA (GVB-E), the latter added to prevent upstream complement activation and generation of endogenous C5b,6. 2% NHS was used as the source of C7, C8, and C9, and hemolysis of chicken erythrocytes (cRBC) (3.3×10^8 cells/mL) was initiated by addition of exogenous purified C5b,6, the concentration of which was determined from pilot studies to yield ˜70-80% lysis at 30 min. No C5b,6 activity was detected in the NHS prior to initiating the reaction. For some experiments, instead of NHS, purified terminal pathway complement components were used in the TP assays. In these assays, in a final volume of 300 uL GVB, lysis was achieved by the sequential addition of the following components: cRBC (3.3×10^8 cells/mL), C5b,6 (20 μM), C7 (15 nM), C8 (10 nM), and C9 (25 nM). The unlysed cell pellet was removed by centrifugation and lysis was measured immediately after the 30-minute reaction. […]
A standard curve for the terminal pathway assay using purified complement components (FIG. 3) was generated using C7 (15 nM), C8 (10 nM), and C9 (25 nM) in excess, and hemolysis of chicken erythrocytes after 30 min at 37° C. was determined as dependent on the concentration of purified C5b,6. […]

[2] = biological target: T1, C5b,6 (Homo sapiens, UniProt P01031+P13671); assay: analytic gel filtration; assay type: binding; details: 10 mM
T1 construct: C5 convertase that cleaves C5 into C5a and C5b; human plasma-derived C5b,6, C7, C8, and C9; purchased Complement Technology, Inc. (Tyler, Tex., USA); host or cells: human plasma
T1 sequence (P01031 19-673 limits assumed): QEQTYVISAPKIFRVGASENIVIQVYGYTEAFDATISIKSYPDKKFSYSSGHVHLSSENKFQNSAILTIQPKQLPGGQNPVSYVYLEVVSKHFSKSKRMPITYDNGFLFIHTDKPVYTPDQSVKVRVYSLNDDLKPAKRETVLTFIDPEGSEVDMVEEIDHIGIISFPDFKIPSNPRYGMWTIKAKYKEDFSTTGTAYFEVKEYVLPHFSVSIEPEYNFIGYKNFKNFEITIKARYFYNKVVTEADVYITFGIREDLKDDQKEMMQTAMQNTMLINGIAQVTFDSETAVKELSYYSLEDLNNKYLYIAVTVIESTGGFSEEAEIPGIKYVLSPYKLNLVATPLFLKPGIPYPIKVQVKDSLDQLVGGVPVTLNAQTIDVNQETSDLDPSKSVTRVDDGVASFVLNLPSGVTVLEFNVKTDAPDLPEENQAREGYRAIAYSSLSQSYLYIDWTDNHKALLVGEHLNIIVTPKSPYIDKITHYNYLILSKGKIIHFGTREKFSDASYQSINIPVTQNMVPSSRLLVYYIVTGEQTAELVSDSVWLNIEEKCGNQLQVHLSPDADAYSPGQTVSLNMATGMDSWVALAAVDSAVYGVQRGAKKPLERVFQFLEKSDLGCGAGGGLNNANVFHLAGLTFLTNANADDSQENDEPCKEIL
T1 sequence (P01031 752-1676 limits assumed): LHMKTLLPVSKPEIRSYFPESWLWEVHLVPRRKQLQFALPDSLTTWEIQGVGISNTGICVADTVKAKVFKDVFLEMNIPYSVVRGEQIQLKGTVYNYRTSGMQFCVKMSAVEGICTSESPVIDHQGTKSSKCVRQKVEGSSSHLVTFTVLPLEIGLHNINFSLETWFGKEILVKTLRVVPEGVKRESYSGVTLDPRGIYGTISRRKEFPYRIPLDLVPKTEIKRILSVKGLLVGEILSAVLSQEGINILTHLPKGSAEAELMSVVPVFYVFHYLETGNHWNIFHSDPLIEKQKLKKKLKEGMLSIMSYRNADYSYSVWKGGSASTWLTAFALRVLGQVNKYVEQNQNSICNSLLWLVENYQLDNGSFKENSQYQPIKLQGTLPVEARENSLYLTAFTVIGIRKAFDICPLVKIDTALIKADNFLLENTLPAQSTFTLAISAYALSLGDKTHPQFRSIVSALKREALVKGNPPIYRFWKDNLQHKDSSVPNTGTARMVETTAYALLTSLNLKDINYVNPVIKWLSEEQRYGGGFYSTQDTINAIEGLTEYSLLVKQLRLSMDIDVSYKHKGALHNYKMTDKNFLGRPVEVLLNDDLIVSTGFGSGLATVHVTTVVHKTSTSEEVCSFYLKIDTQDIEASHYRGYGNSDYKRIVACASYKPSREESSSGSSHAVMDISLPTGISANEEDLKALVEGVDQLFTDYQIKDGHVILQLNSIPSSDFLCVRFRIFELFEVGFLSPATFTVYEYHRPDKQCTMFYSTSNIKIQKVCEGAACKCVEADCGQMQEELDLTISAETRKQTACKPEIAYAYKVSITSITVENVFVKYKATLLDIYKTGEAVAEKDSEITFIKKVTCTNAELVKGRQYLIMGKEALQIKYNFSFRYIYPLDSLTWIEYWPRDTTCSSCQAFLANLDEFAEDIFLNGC
T1 sequence (P13671 22-934): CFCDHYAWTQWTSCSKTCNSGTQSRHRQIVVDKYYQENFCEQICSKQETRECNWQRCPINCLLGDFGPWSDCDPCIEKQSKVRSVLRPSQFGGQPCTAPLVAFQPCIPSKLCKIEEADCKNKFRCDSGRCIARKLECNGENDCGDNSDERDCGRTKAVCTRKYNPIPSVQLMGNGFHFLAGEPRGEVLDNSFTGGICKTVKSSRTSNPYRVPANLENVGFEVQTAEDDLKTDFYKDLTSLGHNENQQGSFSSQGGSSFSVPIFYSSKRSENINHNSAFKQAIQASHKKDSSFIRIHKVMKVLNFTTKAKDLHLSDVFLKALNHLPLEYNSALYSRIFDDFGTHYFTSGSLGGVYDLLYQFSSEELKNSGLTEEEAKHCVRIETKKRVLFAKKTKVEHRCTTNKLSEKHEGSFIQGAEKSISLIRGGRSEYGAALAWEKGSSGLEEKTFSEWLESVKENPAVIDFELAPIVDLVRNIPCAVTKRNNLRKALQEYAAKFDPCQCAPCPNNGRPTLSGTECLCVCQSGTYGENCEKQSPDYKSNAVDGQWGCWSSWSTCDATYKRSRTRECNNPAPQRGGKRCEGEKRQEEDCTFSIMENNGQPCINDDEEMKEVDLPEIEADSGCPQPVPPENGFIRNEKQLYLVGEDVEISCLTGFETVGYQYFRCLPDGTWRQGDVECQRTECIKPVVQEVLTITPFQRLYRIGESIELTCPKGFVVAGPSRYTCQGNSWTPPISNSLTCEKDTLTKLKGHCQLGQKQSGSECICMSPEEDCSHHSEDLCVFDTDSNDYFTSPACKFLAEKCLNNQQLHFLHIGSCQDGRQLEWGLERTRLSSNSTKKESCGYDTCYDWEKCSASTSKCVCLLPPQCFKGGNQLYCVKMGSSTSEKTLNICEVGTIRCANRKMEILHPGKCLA
Experimental: Proteins were stored in their stock solution buffers. The C5b,6 buffer consisted of 10 mM HEPES, 120 mM NaCl, pH 7.2. The C7 buffer consisted of 10 mM Na3PO4, 145 mM NaCl, at pH 7.3 (PBS). The buffers were filtered through a 0.22 μm pore diameter Stericup and Steritop Express™ PLUS filter from Millipore (Billerica, Mass., USA).
Proteins were thawed at 37° C. for 10 min. An excess amount of protein was removed from the stock vial and transferred to a clean 600 μL microtube. C7 was diluted to […]. The proteins were centrifuged at 20,817 g for 15 min and under a Class 2A Biosafety Cabinet, 100 μL fractions were transferred to clean microtubes. The following samples were analyzed by gel filtration:
For all samples, 20 μg of the protein in 100 μL of their respective buffers was prepared. For samples containing polyphosphate, 8 μL of 400 mM polyP>1000 was mixed with 2 μL of 5× concentrated HBS (for C5b,6) or PBS (for C7), yielding a solution of 320 mM polyP>1000 in HBS or PBS. 3.13 μL of the polyphosphate solution was added to 100 μL of either C5b,6 or C7, for a final polyP>1000 concentration of 9.71 mM. […]
The gel filtration apparatus, ÄKTAmicro System from G.E. Healthcare (Buckinghamshire, UK), was equilibrated with either HBS (0.22 μm filtered) for C5b,6 or PBS (0.22 μm filtered) for C7 for at least 1 hour, at 5 μL per minute. […] Protein was monitored with UV absorbance at 280 nm. […]

In the case of `O=P(O)(O)O` [P1, Orthophosphate], the “effect on erythrocyte lysis, purified TP components” value [1] is reported as “had no effect” and the “effect on C5b,6 elution profile in gel filtration” value [2] is reported as “did not affect the retention time or elution profile”.
